# Test results from patent publication EP4818168A1, “FUSED RING COMPOUND, PHARMACEUTICAL COMPOSITION THEREOF AND USE THEREOF” (priority 2023, dated 2025).
# Like-named read-outs stand apart in the source and are kept apart here.
# Tests used:
# AURKA = target: T1, AURKA (Homo sapiens, UniProt O14965); type: cell-based
# T1 construct: endogenous in cells; host or cells: Jurkat cells
# T1 sequence (O14965 1-403): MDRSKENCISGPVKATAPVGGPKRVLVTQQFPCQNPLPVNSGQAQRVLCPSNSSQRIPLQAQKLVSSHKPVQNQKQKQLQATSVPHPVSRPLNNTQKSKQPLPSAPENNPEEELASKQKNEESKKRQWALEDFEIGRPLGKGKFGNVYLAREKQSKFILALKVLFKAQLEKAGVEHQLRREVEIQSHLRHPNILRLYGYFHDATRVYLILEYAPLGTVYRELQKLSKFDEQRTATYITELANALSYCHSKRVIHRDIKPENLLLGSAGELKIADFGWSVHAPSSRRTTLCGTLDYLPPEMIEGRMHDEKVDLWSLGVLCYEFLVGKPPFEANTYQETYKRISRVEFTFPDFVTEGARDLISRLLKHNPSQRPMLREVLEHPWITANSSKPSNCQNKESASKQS
# Method in brief: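 AURKA degradation read by western blot: band signal, fluorescent or chemiluminescent, curve-fitted to derive DC50. Cells were Jurkat, plated at 1×10^6 cells/500 µL with compound, then lysed and blotted onto nitrocellulose, primary antibody overnight at 4°C.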
# HCC1806 cells = test: CTG assay of compound inhibition on cell viability (HCC1806 cells); type: cell-based; settings: Homo sapiens, HCC1806, 144 h, read-out: IC50 in HCC1806 Cells
# Procedure: CellTiter-Glo (CTG) is a rapid cell viability test method based on ATP detection. […] Adenosine triphosphate (ATP) participates in various enzymatic reactions in organisms and is an indicator of living cell metabolism. Its content directly reflects the number of living cells and cell status. During the experiment, equal volume of CTG reagent is added to the cultured cells to measure the luminescence value. The chemiluminescent signal value is proportional to the amount of ATP, thus reflecting the number of viable cells. Therefore, cell viability can be obtained by detecting the ATP content. Compounds that affect cell viability will inhibit cell viability in a concentration-dependent manner, allowing a curve to be fitted to obtain the IC50 value.
# The experimental procedure is as follows: • 11. Place the cell suspension in a 15 mL centrifuge tube, centrifuge at 1000 rpm for 5 min at room temperature, discard the supernatant, and collect the cell pellet. • 12. Resuspend the cell pellet with preheated complete cell culture medium (RPMI1640+10%FBS+1%PS), and use a Countess® automated cell counter to detect cell viability and density. The cell viability must be above 90%. • 13. […] Transfer the compound solution to a 96-well plate seeded with cells (final concentration of DMSO 0.1%), and place in a cell incubator at 37°C, 5% CO2 for 6 days. • 15. […] Protect from light during the whole process. Perform optical signal readings using a SpectraMax i3x reader. • 16. Data analysis: Remaining activity (%) = 100% * (1 - ((LumDMSO - Lummedium) - Lumsample) / (LumDMSO - LumPBS/medium)). Use GraphPad Prism 9.0 software to draw an S-shaped dose-survival rate curve and calculate the IC50 value using a nonlinear regression model.
# [1] = 100 nM compound, Jurkat cells, 24 h, Table 1
# [2] = 1 µM compound, Jurkat cells, 24 h, Table 1
SMILES,Percentage of AURKA Degradation Induced by 100 nM Compound in Jurkat Cells (AURKA; [1]),Percentage of AURKA Degradation Induced by 1 µM Compound in Jurkat Cells (AURKA; [2]),IC50 (HCC1806 cells),Percentage of AURKA Degradation Induced by 100 nM Compound in Jurkat Cells (AURKA),Percentage of AURKA Degradation Induced by 1 µM Compound in Jurkat Cells (AURKA)
COc1cc(Nc2ncc3c(n2)-c2ccc(Cl)cc2C(c2c(F)cccc2OC)=NC3)ccc1C(=O)N1CCC2(C1)CN(c1ccc(N3CCC(=O)NC3=O)cc1)C2 [Compound A44],+ (Degradation ≤ 30%),+ (Degradation ≤ 30%),< 1000 nM,–,–
COc1cc(Nc2ncc3c(n2)-c2ccc(Cl)cc2C(c2c(F)cccc2OC)=NC3)ccc1C(=O)NCCN1CCN(c2ncc(N3CCC(=O)NC3=O)cn2)CC1 [Compound A45],++ (30% < Degradation ≤ 70%),++ (30% < Degradation ≤ 70%),< 1000 nM,–,–
COc1cccc(F)c1C1=NCc2cnc(Nc3ccc(C(=O)NC4CC5(CCN(c6ccc(N7CCC(=O)NC7=O)cc6)CC5)C4)cc3)nc2-c2ccc(Cl)cc21 [Compound A46],+++ (Degradation > 70%),+++ (Degradation > 70%),< 1000 nM,–,–
COc1cc(Nc2ncc3c(n2)-c2ccc(Cl)cc2C(c2c(F)cccc2OC)=NC3)ccc1C(=O)NCCN1CCN(c2ccc(C3CCC(=O)NC3=O)cc2)CC1 (stereo not drawn) [Compound A47],–,–,< 1000 nM,++ (key: +: Degradation ≤ 30%; ++: 30% < Degradation ≤ 70%; +++: Degradation > 70%),+ (key: +: Degradation ≤ 30%; ++: 30% < Degradation ≤ 70%; +++: Degradation > 70%)
COc1cc(Nc2ncc3c(n2)-c2ccc(Cl)cc2C(c2c(F)cccc2OC)=NC3)ccc1C(=O)NC1CN(CCc2ccc(N3CCC(=O)NC3=O)cc2)C1 [Compound A48],+ (Degradation ≤ 30%),+ (Degradation ≤ 30%),< 1000 nM,–,–
COc1cc(Nc2ncc3c(n2)-c2ccc(Cl)cc2C(c2c(F)cccc2OC)=NC3)ccc1C(=O)N[C@H]1C[C@H](C#Cc2ccc(N3CCC(=O)NC3=O)cc2)C1 [Compound A51],++ (30% < Degradation ≤ 70%),+++ (Degradation > 70%),1000 to 10000 nM,–,–
O=C1CCN(c2cccc(C#C[C@H]3C[C@H](NC(=O)c4ccc(Nc5ncc6c(n5)-c5ccc(Cl)cc5C(c5c(F)cccc5F)=NC6)cc4)C3)c2)C(=O)N1 [Compound A52],++ (30% < Degradation ≤ 70%),++ (30% < Degradation ≤ 70%),< 1000 nM,–,–
COc1cc(Nc2ncc3c(n2)-c2ccc(Cl)cc2C(c2c(F)cccc2OC)=NC3)ccc1C(=O)NC1CC2(CCN(c3ccc(N4CCC(=O)NC4=O)cn3)CC2)C1 [Compound A54],+++ (Degradation > 70%),+++ (Degradation > 70%),< 1000 nM,–,–
O=C1CCN(c2ccc(N3CCC4(CC3)CC(NC(=O)c3ccc(Nc5ncc6c(n5)-c5ccc(Cl)cc5C(c5c(F)cccc5F)=NC6)cc3)C4)nc2)C(=O)N1 [Compound A55],+++ (Degradation > 70%),+++ (Degradation > 70%),< 1000 nM,–,–
O=C1CCN(c2ccc(N3CC4(CCC(NC(=O)c5ccc(Nc6ncc7c(n6)-c6ccc(Cl)cc6C(c6c(F)cccc6F)=NC7)cc5)CC4)C3)cc2)C(=O)N1 [Compound A56],+++ (Degradation > 70%),+++ (Degradation > 70%),< 1000 nM,–,–
COc1cc(Nc2ncc3c(n2)-c2ccc(Cl)cc2C(c2c(F)cccc2OC)=NC3)ccc1C(=O)NC1CCC2(CC1)CN(c1ccc(N3CCC(=O)NC3=O)cc1)C2 [Compound A57],+++ (Degradation > 70%),+++ (Degradation > 70%),< 1000 nM,–,–
COc1cc(Nc2ncc3c(n2)-c2ccc(Cl)cc2C(c2c(F)cccc2OC)=NC3)ccc1C(=O)NC1CC2(C1)CN(c1ccc(N3CCC(=O)NC3=O)cc1)C2 [Compound A58],++ (30% < Degradation ≤ 70%),++ (30% < Degradation ≤ 70%),< 1000 nM,–,–
O=C1CCN(c2ccc(N3CC4(CC(NC(=O)c5ccc(Nc6ncc7c(n6)-c6ccc(Cl)cc6C(c6c(F)cccc6F)=NC7)cc5)C4)C3)cc2)C(=O)N1 [Compound A59],++ (30% < Degradation ≤ 70%),+++ (Degradation > 70%),< 1000 nM,–,–
O=C1CCN(c2ccc(N3CC4(CCC(NC(=O)c5ccc(Nc6ncc7c(n6)-c6ccc(Cl)cc6C(c6c(F)cccc6F)=NC7)cc5)CC4)C3)nc2)C(=O)N1 [Compound A61],+++ (Degradation > 70%),+++ (Degradation > 70%),< 1000 nM,–,–
COc1cccc(F)c1C1=NCc2cnc(Nc3ccc(C(=O)NC4CC5(C4)CN(c4cccc(N6CCC(=O)NC6=O)c4)C5)cc3)nc2-c2ccc(Cl)cc21 [Compound A63],++ (30% < Degradation ≤ 70%),++ (30% < Degradation ≤ 70%),< 1000 nM,–,–
O=C1CCN(c2ccc(N3CCN(CCNC(=O)c4ccc(Nc5ncc6c(n5)-c5ccc(Cl)cc5C(c5c(F)cccc5F)=NC6)cc4)CC3=O)nc2)C(=O)N1 [Compound A64],–,–,< 1000 nM,+++ (key: +: Degradation ≤ 30%; ++: 30% < Degradation ≤ 70%; +++: Degradation > 70%),++ (key: +: Degradation ≤ 30%; ++: 30% < Degradation ≤ 70%; +++: Degradation > 70%)
COc1cccc(F)c1C1=NCc2cnc(Nc3ccc(C(=O)NCCN4CCN(c5ccc(N6CCC(=O)NC6=O)cn5)C(=O)C4)cc3)nc2-c2ccc(Cl)cc21 [Compound A65],+++ (Degradation > 70%),++ (30% < Degradation ≤ 70%),< 1000 nM,–,–
O=C1CCN(c2ccc(N3CCN(CCNC(=O)c4ccc(Nc5ncc6c(n5)-c5ccc(Cl)cc5C(c5c(F)cccc5F)=NC6)cc4)CC34CC4)nc2)C(=O)N1 [Compound A66],+ (Degradation ≤ 30%),+ (Degradation ≤ 30%),< 1000 nM,–,–
COc1cccc(F)c1C1=NCc2cnc(Nc3ccc(C(=O)NCCN4CCN(c5ccc(N6CCC(=O)NC6=O)cn5)C5(CC5)C4)cc3)nc2-c2ccc(Cl)cc21 [Compound A67],+ (Degradation ≤ 30%),+ (Degradation ≤ 30%),< 1000 nM,–,–
COc1cccc(F)c1C1=NCc2cnc(Nc3ccc(C(=O)NCCN4CCN(c5ccc(N6CCC(=O)NC6=O)cn5)CC45CC5)cc3)nc2-c2ccc(Cl)cc21 [Compound A69],+++ (Degradation > 70%),+++ (Degradation > 70%),< 1000 nM,–,–
O=C1CCN(c2ccc(N3CC(CN4CC(NC(=O)c5ccc(Nc6ncc7c(n6)-c6ccc(Cl)cc6C(c6c(F)cccc6F)=NC7)cc5)C4)C3)cc2)C(=O)N1 [Compound A70],+++ (Degradation > 70%),+++ (Degradation > 70%),< 1000 nM,–,–
COc1cccc(F)c1C1=NCc2cnc(Nc3ccc(C(=O)NC4CN(CC5CN(c6ccc(N7CCC(=O)NC7=O)cc6)C5)C4)cc3)nc2-c2ccc(Cl)cc21 [Compound A71],+++ (Degradation > 70%),+++ (Degradation > 70%),< 1000 nM,–,–
O=C1CCN(c2cccc(N3CC(CN4CC(NC(=O)c5ccc(Nc6ncc7c(n6)-c6ccc(Cl)cc6C(c6c(F)cccc6F)=NC7)cc5)C4)C3)c2)C(=O)N1 [Compound A72],+++ (Degradation > 70%),+++ (Degradation > 70%),< 1000 nM,–,–
